Literature values in patent US20020035459A1, “PHARMACOKINETIC-BASED DRUG DESIGN TOOL AND METHOD” (priority 1998, published 2002).

Experiments:
intestinal mucosa = settings: permeability standards
rabbit intestinal tissue = settings: donor concentration per compound; for Pe Colon: rabbit colon; for Pe Duodenum: rabbit duodenum; for Pe Ileum: rabbit ileum; for Pe Jejunum: rabbit jejunum
[1] = plasma kinetics, first order transfer

Transport mechanism (intestinal mucosa) | Pe Colon (rabbit intestinal tissue) | Pe Duodenum (rabbit intestinal tissue) | Pe Ileum (rabbit intestinal tissue) | Pe Jejunum (rabbit intestinal tissue) | k21 [1] | SMILES
Carrier-mediated Influx | 9.28 ×10⁻⁶ cm/s | 4.55 ×10⁻⁶ cm/s | 14.5 ×10⁻⁶ cm/s | 10.2 ×10⁻⁶ cm/s | – | O=C[C@H](O)[C@@H](O)[C@H](O)[C@H](O)CO [D-glucose]
Passive Paracellular | 5.53 ×10⁻⁶ cm/s | 1.73 ×10⁻⁶ cm/s | 4.02 ×10⁻⁶ cm/s | 3.54 ×10⁻⁶ cm/s | – | OC[C@@H](O)[C@@H](O)[C@H](O)[C@H](O)CO [mannitol]
– | – | – | – | – | 0.670 | Nc1nc2c(ncn2COC(CO)CO)c(=O)[nH]1.[Na] [Gancyclovir, 9-(1,3-dihydroxy-2-propoxymethyl)guanine, monosodium salt]
– | 3.85 ×10⁻⁶ cm/s | 0.3 ×10⁻⁶ cm/s | 2.91 ×10⁻⁶ cm/s | 1.31 ×10⁻⁶ cm/s | – | C[C@]12CCC(=O)C=C1CC[C@@H]1[C@@H]2[C@@H](O)C[C@@]2(C)[C@H]1CC[C@]2(O)C(=O)CO [hydrocortisone]
